Where “and” joins values, the source holds several entries; their conditions need not be identical. Identical values can stand only once. Like-named read-outs stand apart in the source and are kept apart here.

The source of these data is PMC10059066, “Probing Serum Albumins and Cyclodextrins as Binders of the Mycotoxin Metabolites Alternariol-3-Glucoside, Alternariol-9-Monomethylether-3-Glucoside, and Zearalenone-14-Glucuronide” (Metabolites, 2023).

The target of test [1] is T1, human serum albumin (HSA) (Homo sapiens, UniProt P02768).
T1 construct: purchased Merck (Darmstadt, Germany)
The test is described as follows: Ultracentrifugation study of mycotoxin-HSA binding. How it is done:
To confirm the data calculated based on fluorescence quenching studies, ultracentrifugation experiments were also performed. With the proper conditions of ultracentrifugation, albumin (with the bound ligands) can be sedimented. The samples (final volume: 500 μL) contained AG, AMG, or Z14Glr (5 μM each) with HSA (60 or 180 μM) dissolved in PBS. Centrifugation (16 h, 170,000× g, 20 °C) was performed using 11 × 34 mm PC tubes (Beckman Coulter, Brea, CA, US) and a Beckman Coulter Optima MAX-XP tabletop ultracentrifuge (fixed-angle rotor). The unbound fractions of mycotoxins were determined in the protein-free supernatant by HPLC-FLD (see details in Section 2.5), as previously reported. (3) K=[LA]/L×[A] where [L], [A], and [LA] are the concentrations (mol/L) of the ligand (unbound), albumin (unbound), and the ligand–albumin complex, respectively.
Furthermore, to test the impact of environmental pH on the stability of mycotoxin–albumin complexes, the abovementioned experiments were also performed in 0.05 M sodium acetate (pH 5.0) and 0.05 M sodium borate (pH 8.5) buffers.
To confirm the binding constants determined in the quenching experiments, and to get insight into the interaction of Z14Glr with HSA, ultracentrifugation studies were also performed. In these investigations, albumins (with the ligands bound) were sedimented, and then the concentrations of the unbound mycotoxins were quantified from the supernatants.

A short description of test [2]: Fluorescence spectroscopic study of mycotoxin-SBECD complex formation. The test is classed as binding. Conditions: for SBECD logK ± SEM (binding constant): Benesi–Hildebrand, 0.05 M sodium acetate pH 5.0, mycotoxin 1 μM, n = 3; for SBECD-induced increase in the emission signal of the mycotoxin: SBECD 0–10 mM, mycotoxin 1 μM, sodium acetate pH 5.0. How it is done: The impacts of SBECD (0–10 mM) and SGD (0–5 mM) on the emission signals of mycotoxins (1 μM each) were tested in sodium acetate buffer (0.05 M, pH 5.0). Mycotoxin–CD interactions were evaluated using the Benesi–Hildebrand equation [11, 31], assuming 1:1 stoichiometry of complex formation:(2) F0/F−F0=1/A+1/A×K×[CD] where K (L/mol) is the binding constant, F0 is the emission signal of the mycotoxin without the host molecules, F is the emission signal of the mycotoxin with CDs, A is a constant, and [CD] is the molar concentration (mol/L) of the host molecules.
Therefore, CD-induced elevation in the fluorescence emission intensities of mycotoxins was examined.
Based on the emission signals at 455 nm, the binding constants of ligand–CD complexes were calculated using the Benesi–Hildebrand equation (Equation (2)). Background corrections were performed in each experiment. […] Glucose and glucuronic acid are bulky, hydrophilic molecules; therefore, it is reasonable to hypothesize that these substituents make the inclusion of AG, AMG, and Z14Glr by the apolar CD cavity difficult.

The nature of test [3]: Extraction of mycotoxins from aqueous solutions with β-cyclodextrin bead polymer. As to conditions: for decrease in mycotoxin concentration (extraction) by BBP: BBP 10 mg/mL, mycotoxin 5 μM, sodium acetate buffer pH 5.0, 40 min, 25 °C; for removal of mycotoxin by BBP at pH 10.0 compared with pH 5.0: sodium borate pH 10.0 vs sodium acetate pH 5.0, mycotoxin 5 μM. The method, then: The extraction of mycotoxins by insoluble (but water-swellable) CD bead polymers was tested in 0.05 M sodium acetate (pH 5.0) and 0.05 M sodium borate (pH 10.0) buffers. AG, AMG, alternariol, Z14Glr, and zearalenone solutions (5 μM each) were incubated with increasing amounts (0–10 mg/mL) of BBP or GBP in a thermomixer for 40 min at 1000 rpm and 25 °C. After pulse centrifugation (5000× g, 3 s), the mycotoxin contents of the supernatants were analyzed by HPLC-FLD (see Section 2.5).
The quantitative analyses of the examined mycotoxins were performed with a Jasco HPLC system (Tokyo, Japan) equipped with a binary pump (PU-4180), an autosampler (AS 4050), and a fluorescence detector (FP-920). Chromatograms were evaluated using the ChromNAV2 software (Jasco). Alternariol and zearalenone were analyzed as described previously. During the validation of our new HPLC-FLD methods, the linearity (LIN), limit of detection (LOD), limit of quantification (LOQ), and intraday repeatability (IDR) were determined as described previously.
AG and AMG were quantified using the following method: Isocratic elution of the samples (20 μL) was performed at room temperature with a 1 mL/min flow rate, employing phosphoric acid (1 mM) and acetonitrile (65:35 v/v%) as the mobile phase, where a Security Guard (C18, 4.0 × 3.0 mm; Phenomenex, Torrance, CA, US) precolumn was linked to a Kinetex EVO C18 (250 × 4.6 mm, 5 μm; Phenomenex) analytical column. Chromatograms were recorded, applying 335 nm and 455 nm excitation and emission wavelengths, respectively. The method validation parameters were as follows: AG (LIN: 0.2–5.0 μM, R^2 = 0.999; LOD = 0.05 μM; LOQ = 0.18 μM; IDR = 1.3%, n = 7); AMG (LIN: 0.2–5.0 μM, R^2 = 0.997; LOD = 0.15 μM; LOQ = 0.50 μM; IDR = 2.3%, n = 7).
Z14Glr was quantified using the following method: Isocratic elution of the samples (20 μL) was performed at room temperature with a 1 mL/min flow rate, employing 1% acetic acid solution and acetonitrile (65:35 v/v%) as the mobile phase, where a Security Guard (C8, 4.0 × 3.0 mm; Phenomenex) precolumn was linked to a Mediterranea See8 (C8, 150 × 4.6 mm, 5 μm; Teknokroma, Barcelona, Spain) analytical column. Chromatograms were recorded, applying 315 nm and 465 nm excitation and emission wavelengths, respectively. The method validation parameters for the HPLC analysis of Z14Glr were also determined (LIN: 0.2–5.0 μM, R^2 = 0.999; LOD = 0.15 μM; LOQ = 0.50 μM; IDR = 2.0%, n = 7).

The mark [4] stands for this setting: 0.05 M sodium acetate pH 5.0, mycotoxin 5 μM, n = 3, read-out: HSA pH 5.0 logK ± SEM (binding constant) (converted).
The mark [5] stands for this setting: 0.05 M sodium borate pH 8.5, mycotoxin 5 μM, n = 3, read-out: HSA pH 8.5 logK ± SEM (binding constant) (converted).
Where [6] appears, read: PBS pH 7.4, mycotoxin 5 μM, n = 3, read-out: HSA pH 7.4 logK ± SEM (binding constant) (converted).

T1 sequence (P02768 25-609): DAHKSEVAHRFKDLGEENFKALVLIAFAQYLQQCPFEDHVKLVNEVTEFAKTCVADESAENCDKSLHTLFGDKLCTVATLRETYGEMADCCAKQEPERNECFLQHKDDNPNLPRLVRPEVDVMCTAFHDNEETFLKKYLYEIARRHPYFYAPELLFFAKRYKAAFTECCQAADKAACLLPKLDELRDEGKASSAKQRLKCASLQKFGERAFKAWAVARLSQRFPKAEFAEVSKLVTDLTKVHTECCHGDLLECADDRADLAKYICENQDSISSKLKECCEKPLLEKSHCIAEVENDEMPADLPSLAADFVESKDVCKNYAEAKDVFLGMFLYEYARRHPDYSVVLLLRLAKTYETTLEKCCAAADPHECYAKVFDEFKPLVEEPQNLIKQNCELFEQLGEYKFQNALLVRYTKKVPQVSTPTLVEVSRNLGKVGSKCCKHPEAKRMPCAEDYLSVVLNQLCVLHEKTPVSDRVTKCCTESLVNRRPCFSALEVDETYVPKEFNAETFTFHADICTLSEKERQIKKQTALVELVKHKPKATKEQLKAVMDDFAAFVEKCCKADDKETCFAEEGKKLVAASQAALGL

Consider `COc1cc(O)c2c(=O)oc3cc(OC4O[C@H](CO)[C@@H](O)[C@H](O)[C@H]4O)cc(C)c3c2c1` (stereo partly shown) [AMG, alternariol-9-monomethylether-3-glucoside], for which, in test [1], the “affinity toward HSA at pH 8.5 relative to pH 5.0” value is “approximately 17 fold”. Further, the Kd in test [1] (setting [4]) was 151 µM. Also, the Kd in test [1] (setting [5]) was 8.91 µM. Also, the Kd in test [1] (setting [6]) was 79.4 µM and 77.6 µM. In test [2], the “SBECD logK ± SEM (binding constant)” value is 2.79 ± 0.08 L/mol and the “SBECD-induced increase in the emission signal of the mycotoxin” value (shortened to “SBECD-induced increase”) was “threefold elevation”. Besides, in test [3], the “decrease in mycotoxin concentration (extraction) by BBP” value (“decrease in mycotoxin concentration” below) is recorded as roughly 75% and the “removal of mycotoxin by BBP at pH 10.0 compared with pH 5.0” value (shortened to “removal … compared with pH 5.0”) is recorded as “did not show relevant pH dependence”.
Turning to `C[C@H]1CCCC(=O)CCC/C=C/c2cc(O[C@@H]3OC(C(=O)O)[C@@H](O)C(O)C3O)cc(O)c2C(=O)O1` (stereo partly drawn) [Z14Glr, zearalenone-14-β,D-glucuronide], the Kd in test [1] (setting [4]) is 25.7 µM; in test [1] (setting [5]), 58.9 µM; in test [1] (setting [6]) it was 63.1 µM and 60.3 µM. Further, the “SBECD logK ± SEM (binding constant)” value in test [2] is listed as 2.32 ± 0.12 L/mol. In test [2], the “SBECD-induced increase” value was “ninefold”. In test [3], the “decrease in mycotoxin concentration” value came to 45%. The “removal … compared with pH 5.0” value in test [3] is reported as “significantly lower than at acidic pH”.
On to `Cc1cc(OC2O[C@H](CO)[C@@H](O)[C@H](O)[C@H]2O)cc2oc(=O)c3c(O)cc(O)cc3c12` (stereo partly shown) [AG, alternariol-3-glucoside], for which the Kd in test [1] (setting [4]) is 33.1 µM. In test [1] (setting [5]), the Kd is 39.8 µM. Also, in test [1] (setting [6]), the Kd is 57.5 µM. Also, in test [2], the “SBECD logK ± SEM (binding constant)” value was determined as 2.92 ± 0.05 L/mol and the “SBECD-induced increase” value is recorded as “threefold elevation”. Besides, in test [3], the “decrease in mycotoxin concentration” value is “approximately 85%” and the “removal … compared with pH 5.0” value is given as “significantly lower than at acidic pH”.
